Laboratory results published in patent US8158794B2, “Hydroxyalkyl substituted imidazoquinoline compounds and methods” (3M Innovative Properties Company, priority 2005, dated 2012).
Read-outs that look alike come from different tables or passages of the source.

Experiments:
[1] = tested on: interferon (α) (IFN-α); assay: Cytokine induction in human cells: IFN-α secreted by PBMC (ELISA); type: cell-based; set-up: key to Maximal Response (pg/mL) IFN: *: Below experimental background level; conditions: median if more than one experiment; for minimal effective concentration: lowest tested concentration inducing response over 20 pg/mL, read-out: Minimum Effective Concentration (μM) IFN; for Maximal Response (pg/mL) IFN: background-subtracted, reference-adjusted
Source text: (§1) An in vitro human blood cell system is used to assess cytokine induction. Activity is based on the measurement of interferon (α) and tumor necrosis factor (α) (IFN-α and TNF-α, respectively) secreted into culture media as described by Testerman et. al. in “Cytokine Induction by the Immunomodulators Imiquimod and S-27609”, Journal of Leukocyte Biology, 58, 365-372 (September, 1995).
(§2) Whole blood from healthy human donors is collected by venipuncture into vacutainer tubes or syringes containing EDTA. Peripheral blood mononuclear cells (PBMC) are separated from whole blood by density gradient centrifugation using HISTOPAQUE-1077 (Sigma, St. Louis, Mo.) or Ficoll-Paque Plus (Amersham Biosciences Piscataway, N.J.). Blood is diluted 1:1 with Dulbecco's Phosphate Buffered Saline (DPBS) or Hank's Balanced Salts Solution (HBSS). Alternately, whole blood is placed in Accuspin (Sigma) or LeucoSep (Greiner Bio-One, Inc., Longwood, Fla.) centrifuge frit tubes containing density gradient medium. The PBMC layer is collected and washed twice with DPBS or HBSS and re-suspended at 4×10^6 cells/mL in RPMI complete. The PBMC suspension is added to 96 well flat bottom sterile tissue culture plates containing an equal volume of RPMI complete media containing test compound.
(§3) The compounds are solubilized in dimethyl sulfoxide (DMSO). The DMSO concentration should not exceed a final concentration of 1% for addition to the culture wells. The compounds are generally tested at concentrations ranging from 30-0.014 μM. Controls include cell samples with media only, cell samples with DMSO only (no compound), and cell samples with reference compound.
(§4) The solution of test compound is added at 60 μM to the first well containing RPMI complete and serial 3 fold dilutions are made in the wells. The PBMC suspension is then added to the wells in an equal volume, bringing the test compound concentrations to the desired range (usually 30-0.014 μM). The final concentration of PBMC suspension is 2×10^6 cells/mL. The plates are covered with sterile plastic lids, mixed gently and then incubated for 18 to 24 hours at 37° C. in a 5% carbon dioxide atmosphere.
(§5) Following incubation the plates are centrifuged for 10 minutes at 1000 rpm (approximately 200×g) at 4° C. The cell-free culture supernatant is removed and transferred to sterile polypropylene tubes. Samples are maintained at −30 to −70° C. until analysis. The samples are analyzed for IFN-α by ELISA and for TNF-α by IGEN/BioVeris Assay.
IFN-α concentration is determined with a human multi-subtype colorimetric sandwich ELISA (Catalog Number 41105) from PBL Biomedical Laboratories, Piscataway, N.J. Results are expressed in pg/mL.
(§6) In total, the data output of the assay consists of concentration values of TNF-α and IFN-α(y-axis) as a function of compound concentration (x-axis).
Analysis of the data has two steps. First, the greater of the mean DMSO (DMSO control wells) or the experimental background (usually 20 pg/mL for IFN-α and 40 pg/mL for TNF-α) is subtracted from each reading. If any negative values result from background subtraction, the reading is reported as “*”, and is noted as not reliably detectable. In subsequent calculations and statistics, “*”, is treated as a zero. Second, all background subtracted values are multiplied by a single adjustment ratio to decrease experiment to experiment variability. The adjustment ratio is the area of the reference compound in the new experiment divided by the expected area of the reference compound based on the past 61 experiments (unadjusted readings). […] The reference compound used is 2-[4-amino-2-ethoxymethyl-6,7,8,9-tetrahydro-α,α-dimethyl-1H-imidazo[4,5-c]quinolin-1-yl]ethanol hydrate (U.S. Pat. No. 5,352,784; Example 91) and the expected area is the sum of the median dose values from the past 61 experiments.
The minimum effective concentration is calculated based on the background-subtracted, reference-adjusted results for a given experiment and compound. […]

[2] = tested on: tumor necrosis factor (α) (TNF-α); assay: Cytokine induction in human cells: TNF-α secreted by PBMC (ORIGEN M-Series immunoassay); type: cell-based; set-up: key to Maximal Response (pg/mL) TNF: *: Below experimental background level; conditions: median if more than one experiment; for minimal effective concentration: lowest tested concentration inducing response over 40 pg/mL, read-out: Minimum Effective Concentration (μM) TNF; for Maximal Response (pg/mL) TNF: background-subtracted, reference-adjusted
Source text: as §1, §2, §3, §4, §5
The TNF-α concentration is determined by ORIGEN M-Series Immunoassay and read on an IGEN M-8 analyzer from BioVeris Corporation, formerly known as IGEN International, Gaithersburg, Md. The immunoassay uses a human TNF-α capture and detection antibody pair (Catalog Numbers AHC3419 and AHC3712) from Biosource International, Camarillo, Calif. Results are expressed in pg/mL.
as §6
Analysis of the data has two steps. First, the greater of the mean DMSO (DMSO control wells) or the experimental background (usually 20 pg/mL for IFN-α and 40 pg/mL for TNF-α) is subtracted from each reading. If any negative values result from background subtraction, the reading is reported as “*”, and is noted as not reliably detectable. In subsequent calculations and statistics, “*”, is treated as a zero. Second, all background subtracted values are multiplied by a single adjustment ratio to decrease experiment to experiment variability. The adjustment ratio is the area of the reference compound in the new experiment divided by the expected area of the reference compound based on the past 61 experiments (unadjusted readings). […]

| Structure (SMILES) | minimal effective concentration ([1]; 18 to 24 hours) [µM] | minimal effective concentration ([2]; 18 to 24 hours) [µM] | Maximal Response (pg/mL) TNF ([2]; tested 30-0.014 μM) | Maximal Response (pg/mL) IFN ([1]; tested 30-0.014 μM) | further results |
| --- | --- | --- | --- | --- | --- |
| Nc1nc2cc(-c3cccnc3)ccc2c2c1nc(CO)n2CCCCNC(=O)NC1CCCC1 (hydrate or solvate) [Example 41] | – | – | – | – | melting point: 225 to 227 °C |
| Nc1nc2cc(-c3cccc(C(=O)N4CCCC4)c3)ccc2c2c1nc(CO)n2CC1CCOCC1 [Example 139, [4-Amino-7-[3-(pyrrolidin-1-ylcarbonyl)phenyl]-1-(tetrahydro-2H-pyran-4-ylmethyl)-1H-imidazo[4,5-c]quinolin-2-yl]methanol] | – | – | – | – | melting point: 281 to 284 °C |
| CC(C)C(=O)N1CCC(Cn2c(CO)nc3c(N)nc4cc(-c5cccnc5)ccc4c32)CC1 [Example 35] | 1.11 | > 30 | * | – | – |
| Nc1nc2cc(-c3cccnc3)ccc2c2c1nc(CO)n2CCCCNC(=O)NC1CCCC1 [Example 41] | 0.04 | 10 | – | – | – |
| CC(C)C(=O)NCCCCn1c(CO)nc2c(N)nc3cc(-c4cccnc4)ccc3c21 [Example 43] | 0.37 | 10 | – | – | – |
| CCCc1nc2c(N)nc3cc(-c4cccnc4)ccc3c2n1CC(C)(C)O [Analog 2, 1-(4-amino-2-propyl-7-pyridin-3-yl-1H-imidazo[4,5-c]quinolin-1-yl)-2-methylpropan-2-ol, reference compound] | 0.04 | 0.37 | – | – | minimal effective concentration ([1]; Table 3, 18 to 24 hours): 0.04 µM; minimal effective concentration ([2]; Table 3, 18 to 24 hours): 0.37 µM |
| CC(C)C(=O)N1CCC(Cn2c(CO)nc3c(N)nc4cc(-c5cccnc5)ccc4c32)CC1 (hydrate or solvate) [Example 35] | – | – | – | – | melting point: 154 to 157 °C |
| CCOCc1nc2c(N)nc3cc(-c4cccnc4)ccc3c2n1CC(C)(C)O [Analog 3, 1-(4-amino-2-ethoxymethyl-7-pyridin-3-yl-1H-imidazo[4,5-c]quinolin-1-yl)-2-methylpropan-2-ol, reference compound] | 0.04 | 0.12 | – | – | minimal effective concentration ([1]; Table 3, 18 to 24 hours): 0.04 µM; minimal effective concentration ([2]; Table 3, 18 to 24 hours): 0.12 µM |
| Cc1cccc(-c2ccc3c(c2)nc(N)c2nc(CO)n(CC(C)(C)O)c23)c1 [Example 9] | 30 | >30 | * | 87 pg/mL | – |
| Nc1nc2cc(-c3ccccc3O)ccc2c2c1nc(CCO)n2CCCN1CCCC1=O (hydrate or solvate) [Example 48] | – | – | – | – | melting point: > 250 °C |
| CC(C)(O)Cn1c(CO)nc2c(N)nc3cc(-c4cncc(CO)c4)ccc3c21 [Example 33] | 0.37 | > 30 | * | – | – |
| CC(C)C(=O)NCCCCn1c(CO)nc2c(N)nc3cc(-c4cccnc4)ccc3c21 (hydrate or solvate) [Example 43] | – | – | – | – | melting point: 225 to 227 °C |
| CS(=O)(=O)N1CCC(Cn2c(CO)nc3c(N)nc4cc(-c5cccnc5)ccc4c32)CC1 [Example 34] | – | – | – | – | melting point: 196 to 198 °C |
| CC(C)Cn1c(CCO)nc2c(N)nc3cc(-c4cncc(CO)c4)ccc3c21 [Example 4] | 0.12 | 10 | 349 pg/mL | 1891 pg/mL | – |
| CCc1nc2c(N)nc3cc(-c4cccnc4)ccc3c2n1CC(C)(C)O [Analog 1, 1-(4-amino-2-ethyl-7-pyridin-3-yl-1H-imidazo[4,5-c]quinolin-1-yl)-2-methylpropan-2-ol, reference compound] | 0.12 | 0.37 | – | – | minimal effective concentration ([1]; Table 3, 18 to 24 hours): 0.12 µM; minimal effective concentration ([2]; Table 3, 18 to 24 hours): 0.37 µM |
| CC(C)NC(=O)N1CCC(Cn2c(CO)nc3c(N)nc4cc(-c5cccnc5)ccc4c32)CC1 [Example 36] | – | – | – | – | melting point: 182 to 184 °C |
| Nc1nc2cc(-c3cncc(CO)c3)ccc2c2c1nc(CO)n2CC1CCCCC1 [Example 49] | 3.33 | > 30 | * | – | – |
| CC(C)(O)Cn1c(CO)nc2c(N)nc3cc(-c4cccnc4)ccc3c21 [Example 8] | 0.37 | 10 | 51 pg/mL | 2886 pg/mL | minimal effective concentration ([1]; Table 3, 18 to 24 hours): 1.11 µM; Maximal Response (pg/mL) IFN ([1]; Table 3, tested 30-0.014 μM): 2251 pg/mL; minimal effective concentration ([2]; Table 3, 18 to 24 hours): >30 µM; Maximal Response (pg/mL) TNF ([2]; Table 3, tested 30-0.014 μM): * (Below experimental background level of 40/pg mL) |
| Nc1nc2cc(-c3cccc(C(=O)N4CCOCC4)c3)ccc2c2c1nc(CO)n2CC1CCCCC1 [Example 50] | 1.11 | > 30 | * | – | – |
| CC(C)Cn1c(CCO)nc2c(N)nc3cc(-c4cccnc4)ccc3c21 [Example 3] | 0.37 | 3.33 | 42 pg/mL | 1180 pg/mL | – |
| CC(C)(O)Cn1c(CO)nc2c(N)nc3cc(-c4cccc(O)c4)ccc3c21 [Example 13] | 0.37 | 10 | 352 pg/mL | 12641 pg/mL | – |
| CC(C)C(=O)N1CCC(Cn2c(CO)nc3c(N)nc4cc(-c5cncc(CO)c5)ccc4c32)CC1 [Example 45] | > 30 | > 30 | * | * | – |
| Cc1ccc(-c2ccc3c(c2)nc(N)c2nc(CO)n(CC(C)(C)O)c23)cc1 [Example 10] | 0.37 | 0.37 | 7423 pg/mL | 1681 pg/mL | – |
| CCCNC(=O)NCCCCn1c(CO)nc2c(N)nc3cc(-c4cccnc4)ccc3c21 [Example 39] | 0.37 | 30 | – | – | – |
| CC(C)(O)Cn1c(CCO)nc2c(N)nc3cc(-c4ccccc4)ccc3c21 [Example 2] | 0.37 | 3.33 | 67 pg/mL | 1274 pg/mL | – |
